Results taken from patent publication US5712274A, “Thienotriazolodiazepine compounds and their pharmaceutical use” (Yoshitomi Pharmaceutical Industries, Ltd., priority 1995, dated 1998).
Where two headings read alike, the source gives them in different places.

Assays:
TNBS-induced colitis = assay: Effect on TNBS-induced colitis model in rats (intrarectal administration); assay type: in vivo, SD rats; settings: 7 days
Procedure: Effect on trinitrobenzenesufonec acid (TNBS)-induced colitis model in rats.
Colitis was induced by intrarectal injection of TNBS solution (60 mg/ml in 50% EtOH, 500 μl/rat) to SD rats. Seven days later, rats were sacrificed, and large intestine (8 cm from anus) was cut off and weighed. Myeloperoxidase (MPO) activity in the intestinal tissue was measured as follows and taken as an indicator of leukocyte infiltration: the intestinal tissue was homogenized and a cycle of freeze-thawing of the tissue was repeated 3 times. The supernatant obtained by centrifugation was assayed for MPO activity with substrate for peroxidase (o-phenylenediamine). MPO activity in the supernatant was calculated with the commercial MPO as a standard. The increases in intestinal weight and MPO activity as described above were taken as indicators of colitis. Test compounds were suspended in 0.5% hydroxypropylmethylcellulose solution and administered intrarectally (o.2 ml/rat) for 5 days beginning on the day of TNBS injection.

glomerulonephritis = assay: Effect on glomerulonephritis in mice (anti-GBM antiserum); assay type: in vivo, female C57BL/6 mice; settings: 12 days after anti-GBM antiserum, 0-5 points
Procedure: Effect on glomerulonephritis in mice
Rabbit immunoglobulin G solution (4 mg/ml in saline) was mixed with Freund's complete adjuvant at a ratio of 1:1 and the emulsion was prepared. The emulsion was injected into peritoneal cavity of female C57BL/6 mice (0.25 ml/mouse). After 5 days, rabbit anti-mouse glomerular basement membrane (GBM) antiserum obtained by the method of Nagai et al. (Japan. J. Pharmacol., 32, 1117, 1982) was administered i.v. (0.08 ml/mouse). […] Test compounds were suspended in 0.5% hydroxypropylmethylcellulose (HPMC) solution and administered p.o. (0.1 ml/10 g body weight) for 13 days beginning on the day of anti-GBM ant-serum injection.

ELAM-1 = assay: Inhibitory effect on TNF-α-induced expression of ELAM-1 in HUVECs; assay type: cell-based; settings: Homo sapiens, HUVEC, read-out: Inhibitory effect (IC50) on ELAM-1 expression
Procedure: (§1) Inhibitory effect on expression of VCAM-1 and ELAM-1 in human umbilical vein-derived endothelial cells (HUVECs)
(§2) HUVECs were suspended in 199 medium containing 20% FCS, 20 μg/ml endothelial cell growth factor derived from bovine brain, and 100 μg/ml heparin, plated into 96-well microculture plates coated with collagen, and cultured at 37° C. in 5% CO2. When cells were grown to confluence, the cells received tumour necrosis factor (TNF)-α (20 U/ml for VCAM-1 expression, 100 U/ml for ELAM-1 expression) and cultured for 5 hr. After the cells were washed once with 199 medium, mouse anti-human VCAM-1 monoclonal antibody (2 μg/ml) or rat anti-human ELAM-1 monoclonal antibody (2 μg/ml) was added, and the cells were incubated for 1 hr at room temperature. After the cells were washed twice, peroxidase-conjugated anti-mouse immunoglobulin antibody or anti-rat immunoglobulin antibody was added, and the cells were incubated for 1 hr at room temperature. After the cells were washed 3 times, 2,2'-azino-bis(3-ethylbenzothiazolone-6-sulfonic acid) was added. After the plates were stood for 15 min at room temperature, absorbance at 405 nm with a reference wave length of 490 nm was measured with a 96-well microplate reader and was regarded as a indicator of VCAM-1 or ELAM-1 expression.

[1] = system: thioglycollate (TG) medium-induced infiltration of leukocytes; assay: Effect on thioglycollate (TG) medium-induced infiltration of leukocytes; assay type: in vivo, BALB/c mice; settings: TG medium 1 ml, day 4
Procedure: Effect on thioglycollate (TG) medium-induced infiltration of leukocytes
One ml of TG medium was injected into peritoneal cavity of BALB/c mice on day 0. On day 4, leukocytes infiltrating into the peritoneal cavity were collected with 3 ml of phosphatebuffered saline containing 0.02% EDTA and the density of leukocytes (cells/ml) was counted with an automatic blood cell counter. Total number of leukocytes (X) was calculated from the density of leukocytes (A) with the following formula.
Test compounds were suspended in 0.5% hydroxypropylmethyl-cellulose solution and administered p.o. (0.1 ml/10 g body weight) on days 0 to 3.

VCAM-1 = assay: Inhibitory effect on TNF-α-induced expression of VCAM-1 in HUVECs; assay type: cell-based; settings: Homo sapiens, HUVEC, read-out: Inhibitory effect (IC50) on CAM-1 expression
Procedure: as §1, §2

[2] = system: antigen induced Eosinophils accumulation into lungs; assay: Effect on antigen induced eosinophils accumulation into lungs in actively sensitized guinea pigs; assay type: in vivo, male Dunkin-Hartley guinea pigs; settings: 30 mg/kg p.o., BALF 24 h after antigen exposure
Procedure: Effect on antigen induced Eosinophils accumulation into lungs in actively sensitized guinea pigs
Male Dunkin-Hartley guinea pigs (4W, Japan SLC, Inc.) were used throughout this study.
Sensitized animals were orally administered (p.o.) with compound or solvent (0.5% hydroxymethylcellulose) 30 min. before final sensitization, 30 min. before antigen exposure and 4.5 h after antigen exposure.
Egg albumin (EA, 10 μg) was added to AI(OH)3 (10 mg) in sterile physiological saline (0.5 ml) and mixed in a blender. This mixture was injected intraperitoneally into recipients. And after 14 days and 21 days, the procedure was repeated. Seven days after the final sensitization procedure, Mepyramine 10 mg/kg was injected intraperitoneally into the sensitized animals. After 30 min., the animals were exposed to aerosol of 1% EA in sterile physiological saline for 5 min.
24 h after antigen exposure, the animals were killed by exsanguination and tracheae were cannulated. And the lungs were lavaged three times with 10 ml of sterile physiological saline. Lavage fluid (BALF) was centrifuged (800 rpm for 10 min. at 4° C.) and the cell pellet was resuspended in 10 ml of sterile physilolgical saline and total cell numbers in BALF were counted in a hemocytometer (MEK 4200, Nihon-kohden, Ltd.). Differential cell counts were made from centrifuged preparations stained with May-Giemsa stain.

CD11b = assay: Effect on CD11b expression in human histiocytic leukemia cell line, U937 cells (PDB-induced); assay type: cell-based; settings: U-937, 72 h, read-out: Inhibitory effect on CD11b expression (IC50)
Procedure: Effect on CD11b expression human histiocytic leukemia cell line, U937 cells
Effect on the expression of CD11b antigen, which is the α chain of an adhesion molecule, Mac-1 expressing on the surface of leukocytgic cells, was investigated. U937 cells were suspended in RPMI1640 medium containing 20% fetal calf serum (FCS), plated with phorbol 12,13-dibutyrate (PDB, 10 ng/ml) into 96-well filtration plates, and cultured for 3 days at 37° C. in 5% CO2. After the cells were washed once with RPMI1640 medium, rat anti-human CD11b antibody (2 μg/ml) was added to each well and the plates were incubated for 1 hr on ice. After the cell were washed twice, peroxidase-conjugated anti-rat immunoglobulin antibody (1 μg/ml) was added, and the cells were incubated for 1 hr on ice. After the cells were washed 3 times, substrate for peroxidase (o-phenylenediamine) was added. After the plates were stood for 15 min at room temperature, absorbance at 490 nm was measured with a 96-well microplate reader and was regarded as a indicator of CD11b antigen expression.

[3] = system: oxazolone-induced ear edema; assay: Effect on oxazolone-induced ear edema in mice; assay type: in vivo; settings: sensitized mice, 24 hr after challenge
Procedure: Effect on oxazolone-induced ear edema in mice.
Mice were sensitized by applying 50 μl of oxazolone solution (50 mg/ml in acetone) to their shaved abdomen on day 0. On day 7, 5 μl of oxazolone solution was applied to each surface of the right ear. After 24 hr (day 8), the right and left ears were cut off with a puncher of 6 mm in diameter and weighed with an electronic reading balance. The difference in weight between the oxazolone-treated ear (right) and untreated ear (left) was taken to reflect the extent of ear edema. Test compounds were suspended in 0.5% hydroxypropylmethycellulose solution and administered p.o. (0.1 ml/10 g body weight) on days 0 to 4 (once a day) and day 7 (twice a day).

[4] = system: lipopolysaccharide (LPS)-induced adhesion of leukocytes; assay: Effect on lipopolysaccharide (LPS)-induced adhesion of leukocytes; assay type: in vivo, BALB/c mice; settings: 6 hr after LPS
Description: Effect on lipopolysaccharide (LPS)-induced adhesion of leukocytes
It has been reported that, by the administration of LPS to mice, an adhesion molecule, Mac-1-dependent leukocyte adhesion is induced, the leukocytes infiltrate into lung, liver and so on, and in result the number of peripheral blood leukocytes reduces (Morisaki et al., Clin. Immunol. Immunopathol., 61, 365-375, 1991). The effect on LPS-induced leukocyte adhesion was investigated by taking the reduction of peripheral blood leukocytes as an indicator of leukocyte adhesion.
LPS solution (50 ng/ml in saline, 0,5 ml/mouse) was injected into peritoneal cavity of BALB/c mice on day 0. Six hr after the LPS injection, the number of peripheral blood leukocytes was counted with an automatic blood cell counter. Test compounds were suspended in 0.5% hydroxypropylmethylcellulose solution and administered p.o. (0.1 ml/10 g body weight) on days -4 to 0.

SMILES	Intestinal weight (mean ± S.D.) (TNBS-induced colitis; 0.01 mg/site intrarectally)	MPO activity (mean ± S.D.) (TNBS-induced colitis; 0.01 mg/site intrarectally)	Intestinal weight (mean ± S.D.) (TNBS-induced colitis; 0.1 mg/site intrarectally)	MPO activity (mean ± S.D.) (TNBS-induced colitis; 0.1 mg/site intrarectally)	Intestinal weight (mean ± S.D.) (TNBS-induced colitis; 1 mg/site intrarectally)	MPO activity (mean ± S.D.) (TNBS-induced colitis; 1 mg/site intrarectally)	Score (mean ± S.D.) of protein level in urine (glomerulonephritis; 1 mg/kg/day p.o.)	Score (mean ± S.D.) of protein level in urine (glomerulonephritis; 3 mg/kg/day p.o.)	Total number of leukocytes (mean ± S.D.) ([1]; 0.03 mg/kg/day p.o.)	Total number of leukocytes (mean ± S.D.) ([1]; 0.1 mg/kg/day p.o.)	Total number of leukocytes (mean ± S.D.) ([1]; 0.3 mg/kg/day p.o.)	Increase in ear weight (mean ± S.D.) ([3]; 1 mg/kg p.o.)	also measured
Cc1sc2c(c1C)C(c1ccc(Cl)cc1)=N[C@@H](CC(=O)Nc1ccc(O)cc1)c1nnc(C)n1-2 [Example 3, (S)-N-(4-hydroxyphenyl)-4-(4-chlorophenyl)-2,3,9-trimethyl-6H-thieno[3,2-f][1,2,4]triazolo[4,3-a][1,4]diazepine-6-acetamide]	501.5 ± 78.3 mg	0.716 ± 0.158 U/ml	472.0 ± 43.4 mg	0.654 ± 0.109 U/ml	460.8 ± 52.3 mg	0.676 ± 0.172 U/ml	–	–	–	–	–	–	–
Cc1sc2c(c1C)C(c1ccc(Cl)cc1)=N[C@@H](CC(=O)NCCO)c1nnc(C)n1-2 [Example 2, (S)-N-(2-hydroxyethyl)-4-(4-chlorophenyl)-2,3,9-trimethyl-6H-thieno[3,2-f][1,2,4]triazolo[4,3-a][1,4]diazepine-6-acetamide 1/4 hydrate]	–	–	–	–	–	–	3.25 ± 0.16	2.44 ± 0.53	1064 ± 359 × 10^4	594 ± 302 × 10^4	570 ± 203 × 10^4	14.2 ± 0.4 mg	IC50 (ELAM-1; HUVECs, TNF-α 100 U/ml, 5 hr): 79 nM; IC50 (VCAM-1; HUVECs, TNF-α 20 U/ml, 5 hr): 37 nM; Number of eosinophils [2]: 11.8 ± 3.8 × 10^6; IC50 (CD11b; U937 cells, PDB 10 ng/ml, 3 days): 150 nM; Increase in ear weight (mean ± S.D.) ([3]; 0.3 mg/kg p.o.): 14.3 ± 1.5 mg
Cc1sc2c(c1C)C(c1ccc(Cl)cc1)=N[C@@H](CC(=O)Nc1cccnc1)c1nnc(C)n1-2.Cl [Example 5, (S)-N-(3-pyridyl)-4-(4-chlorophenyl)-2,3,9-trimethyl-6H-thieno[3,2-f][1,2,4]triazolo[4,3-a][1,4]diazepine-6-acetamide hydrochloride]	–	–	–	–	–	–	3.44 ± 0.88	2.22 ± 0.44	1221 ± 239 × 10^4	990 ± 327 × 10^4	596 ± 165 × 10^4	15.2 ± 0.8 mg	IC50 (ELAM-1; 5 h): 14 nM; IC50 (VCAM-1; 5 h): 4.5 nM; IC50 (CD11b): 260 nM; Number of peripheral blood leukocytes (mean ± S.D.) ([4]; 1 mg/kg/day p.o.): 46 ± 8 × 100/μl; Number of peripheral blood leukocytes (mean ± S.D.) ([4]; 3 mg/kg/day p.o.): 69 ± 18 × 100/μl; Number of peripheral blood leukocytes (mean ± S.D.) ([4]; 10 mg/kg/day p.o.): 103 ± 16 × 100/μl; Increase in ear weight (mean ± S.D.) ([3]; 3 mg/kg p.o.): 14.0 ± 0.6 mg; Increase in ear weight (mean ± S.D.) ([3]; 10 mg/kg p.o.): 13.3 ± 0.5 mg
Cc1sc2c(c1C)C(c1ccc(Cl)cc1)=N[C@@H](CC(=O)Nc1ccc(N)cc1)c1nnc(C)n1-2 [Example 4, (S)-N-(4-aminophenyl)-4-(4-chlorophenyl)-2,3,9-trimethyl-6H-thieno[3,2-f][1,2,4]triazolo[4,3-a][1,4]diazepine-6-acetamide]	490.8 ± 89.9 mg	0.703 ± 0,313 U/ml	488.1 ± 24.0 mg	0.511 ± 0.103 U/ml	511.8 ± 98.5 mg	0.488 ± 0.103 U/ml	–	–	–	–	–	–	–
